What follows are molecules tested on PC-12 (assay: Neuroprotective activity in rat PC12 cells expressing SOD1 G93A mutant assessed as increase in cell viability after 48 hrs by CalceinAM-based fluorescence assay). Conditions: PC-12, 48 h.
Format: functional

Which EC50 does the source give for `O=c1cc(COc2cc(Cl)cc(Cl)c2)[nH]n1-c1ccc([N+](=O)[O-])cc1[N+](=O)[O-]` here?
Its EC50 is > 32000 nM.

With `O=C1CC(COc2cc(Cl)cc(Cl)c2)CN1Cc1ccccc1` (stereo not given) as the molecule, how does the EC50 read?
The EC50 was > 32000 nM.

How did the EC50 turn out when `N#CCC(=O)n1[nH]c(COc2cc(Cl)cc(Cl)c2)cc1=O` was run?
Its EC50 is 420 nM.

How did the EC50 turn out when `O=C1C=C(COc2cc(Cl)cc(Cl)c2)CN1Cc1ccccc1` was run?
Its EC50 is > 32000 nM.

Which EC50 does the source give for `O=Cn1[nH]c(COc2cc(Cl)cc(Cl)c2)cc1=O` here?
Its EC50 is 490 nM.

`O=C(c1ccc(N=C=S)cc1)n1[nH]c(COc2cc(Cl)cc(Cl)c2)cc1=O` was tested. Which EC50 did it give?
Its EC50 is 330 nM.

With `Cc1nnsc1C(=O)n1[nH]c(COc2cc(Cl)cc(Cl)c2)cc1=O` as the molecule, how does the EC50 read?
Its EC50 is 1710 nM.

How did the EC50 turn out when `O=c1cc(COc2cc(Cl)cc(Cl)c2)[nH]n1-c1nc(-c2ccccc2)cs1` was run?
The EC50 was 1000 nM.

How did the EC50 turn out when `O=C(c1cccs1)n1[nH]c(COc2cc(Cl)cc(Cl)c2)cc1=O` was run?
The EC50 was 310 nM.

For `O=c1cc(COc2cc(Cl)cc(Cl)c2)[nH]n1CCCO`, which EC50 is on record?
The EC50 was 340 nM.

How did the EC50 turn out when `CC(=O)n1[nH]c(COc2cc(Cl)cc(Cl)c2)cc1=O` was run?
Its EC50 is 270 nM.

`O=c1cc(COc2cc(Cl)cc(Cl)c2)[nH]n1-c1c(Cl)cc(C(F)(F)F)cc1Cl` was tested. Which EC50 did it give?
Its EC50 is > 32000 nM.

With `O=C(CCCC[C@@H]1SC[C@@H]2NC(=O)N[C@@H]21)NCCOCCOCCOCCOCCC(=O)n1[nH]c(COc2cc(Cl)cc(Cl)c2)cc1=O` as the molecule, how does the EC50 read?
The EC50 was 670 nM.

For `O=C(c1cccnc1)n1[nH]c(COc2cc(Cl)cc(Cl)c2)cc1=O`, which EC50 is on record?
Its EC50 is 1320 nM.

For `Cn1c(COc2cc(Cl)cc(Cl)c2)cc(=O)n1C`, which EC50 is on record?
The EC50 was > 32000 nM.

Which EC50 does the source give for `O=c1cc(COc2cc(Cl)cc(Cl)c2)[nH]n1-c1ccccc1` here?
Its EC50 is 1030 nM.

Which EC50 does the source give for `O=c1cc(COc2cc(Cl)cc(Cl)c2)[nH]n1-c1ccc(Cl)cc1` here?
The EC50 was 1730 nM.

Which EC50 does the source give for `O=c1cc(COc2cc(Cl)cc(Cl)c2)[nH]n1Cc1cccc(O)c1` here?
Its EC50 is 360 nM.

Which EC50 does the source give for `O=c1cc(COc2cc(Cl)cc(Cl)c2)[nH]n1CCO` here?
Its EC50 is > 32000 nM.

With `COc1ccc(Cn2[nH]c(COc3cc(Cl)cc(Cl)c3)cc2=O)cc1` as the molecule, how does the EC50 read?
The EC50 was > 32000 nM.

With `O=C1N[C@H]2[C@H](CS[C@H]2CCCCC(=O)n2[nH]c(COc3cc(Cl)cc(Cl)c3)cc2=O)N1` as the molecule, how does the EC50 read?
The EC50 was 560 nM.

For `Cn1[nH]c(COc2cc(Cl)cc(Cl)c2)cc1=O`, which EC50 is on record?
Its EC50 is 670 nM.

For `O=c1cc(COc2cc(Cl)cc(Cl)c2)[nH][nH]1`, which EC50 is on record?
Its EC50 is 67 nM.

With `O=c1cc(COc2cc(Cl)cc(Cl)c2)[nH]n1Cc1ccccc1` as the molecule, how does the EC50 read?
Its EC50 is 130 nM.

`Nc1ccc(C(=O)n2[nH]c(COc3cc(Cl)cc(Cl)c3)cc2=O)cc1` was tested. Which EC50 did it give?
Its EC50 is 930 nM.

Source: ChEMBL document CHEMBL2163290, “Substituted pyrazolones require N2 hydrogen bond donating ability to protect against cytotoxicity from protein aggregation of mutant superoxide dismutase 1” (Bioorg Med Chem Lett, 2012)
